# Measured values as given in ChEMBL document CHEMBL1123590, “Dopamine agonists related to 3-allyl-6-chloro-2,3,4,5-tetrahydro-1-(4-hydroxyphenyl)-1H-3-benzaz epi ne-7, 8-diol. 6-Position modifications” (J Med Chem, 1987).
# Tests used:
# D(2) dopamine receptor [1] = molecular target: T1, D(2) dopamine receptor (Homo sapiens, UniProt P14416); assay: Dopamine receptor D2 agonist activity was determined for inhibition of release of NE in an isolated perfused rabbit ear artery preparation
# Rattus norvegicus = species: Rattus norvegicus; assay: Maximum response of adenylate cyclase to that of maximum response caused by dopamine was measured; type: functional; set-up: unit not given here
# D(1A) dopamine receptor = D(1A) dopamine receptor (Rattus norvegicus, UniProt P18901); assay: Dopamine agonist (Dopamine receptor D1) activity was measured as increase in cAMP formation relative to maximum increase in dopamine-sensitive adenylate cyclase; type: functional
# D(2) dopamine receptor [2] = molecular target: T1, D(2) dopamine receptor; assay: Dopamine receptor D2 agonist activity was determined for inhibition of the constrictor response to electrical stimulation in an isolated perfused rabbit ear artery preparation; type: functional, Oryctolagus cuniculus; details: target entry is the homologue from another species
# Sequence of D(1A) dopamine receptor (P18901 whole entry, the tested form may be a part): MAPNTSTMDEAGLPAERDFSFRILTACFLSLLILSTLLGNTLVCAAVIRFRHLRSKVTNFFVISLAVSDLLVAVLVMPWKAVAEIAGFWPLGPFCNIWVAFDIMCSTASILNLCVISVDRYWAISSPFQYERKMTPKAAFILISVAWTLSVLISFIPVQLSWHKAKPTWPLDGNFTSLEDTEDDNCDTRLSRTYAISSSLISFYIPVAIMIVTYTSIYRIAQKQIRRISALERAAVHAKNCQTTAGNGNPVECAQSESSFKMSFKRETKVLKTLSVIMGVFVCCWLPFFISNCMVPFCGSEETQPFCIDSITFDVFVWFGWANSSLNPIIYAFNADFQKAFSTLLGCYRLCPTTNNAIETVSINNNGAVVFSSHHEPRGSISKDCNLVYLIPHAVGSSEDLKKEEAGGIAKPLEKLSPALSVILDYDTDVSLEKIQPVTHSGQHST
# T1 sequence (P14416 whole entry, the tested form may be a part): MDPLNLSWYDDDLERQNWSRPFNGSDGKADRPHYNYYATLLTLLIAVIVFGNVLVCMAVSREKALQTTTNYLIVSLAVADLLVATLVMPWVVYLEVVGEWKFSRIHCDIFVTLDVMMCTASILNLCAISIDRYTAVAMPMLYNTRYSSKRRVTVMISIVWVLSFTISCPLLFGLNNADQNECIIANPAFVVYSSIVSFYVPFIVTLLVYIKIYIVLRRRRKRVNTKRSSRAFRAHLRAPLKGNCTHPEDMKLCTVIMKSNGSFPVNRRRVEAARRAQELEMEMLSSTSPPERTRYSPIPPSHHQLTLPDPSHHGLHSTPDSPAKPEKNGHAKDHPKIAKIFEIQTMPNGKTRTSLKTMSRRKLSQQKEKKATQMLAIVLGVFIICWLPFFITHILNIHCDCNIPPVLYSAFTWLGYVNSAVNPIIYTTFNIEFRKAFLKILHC
SMILES,EC50 (D(2) dopamine receptor [1]),EC50 (D(1A) dopamine receptor),EC50 (D(2) dopamine receptor [2]),Max response (Rattus norvegicus)
C=CCN1CCc2c(cc(O)c(O)c2C)C(c2ccc(O)cc2)C1.Cl (stereo unspecified),,400 nM,> 10000 nM,69
Br.C=CCN1CCc2cc(O)c(O)cc2C(c2ccc(O)cc2)C1 (stereo unspecified),,400 nM,253 nM,35
C=CCN1CCc2cc(O)c(O)cc2C(c2ccccc2)C1.Cl (stereo unspecified),,,,45

# More lines, main results first:
EC50 (D(2) dopamine receptor [1]),EC50 (D(1A) dopamine receptor),EC50 (D(2) dopamine receptor [2]),SMILES,Max response (Rattus norvegicus)
122 nM,15 nM,,C=CCN1CCc2c(cc(O)c(O)c2Cl)C(c2ccc(O)cc2)C1.CS(=O)(=O)O (stereo unspecified),80
,50 nM,174 nM,C=CCN1CCc2c(cc(O)c(O)c2Br)C(c2ccc(O)cc2)C1.CS(=O)(=O)O (stereo unspecified),78
,100 nM,137 nM,C=CCN1CCc2c(cc(O)c(O)c2F)C(c2ccc(O)cc2)C1.CS(=O)(=O)O (stereo unspecified),89
